Assay results published in patent US10583209B2, “Hyperpolarized 1-13C-1,1-bis(acetoxy(methyl))-2,2′-cyclopropane as metabolic marker for MR” (BRACCO IMAGING S.P.A., priority 2013, dated 2020).
Blank lines part the entries; values can stand above or below the molecule they belong to.

Legend:
[1] = Liquid-state 13C-NMR after dissolution of hyperpolarized sample (T1, polarization, hydrolysis); type: physicochemical; conditions: for T1, 37 C. 14.1 T: 13C longitudinal relaxation time, in s (unit assumed)
Experimental: C) The sample was dissolved in 5 ml phosphate buffer (40 mM, pH 7.3).

[2] = system: Rat liver cancer cells (Morris7777); experiment: In cell DNP conversion in rat liver cancer cells, co-polarized with 1-13C-pyruvate; type: cell-based; conditions: for AUC (arb. Units), area under the metabolic curve: 10 million cells, approx. 3.5 mM of each substrate, 37 C
Experimental: (§1) The experiments were performed with a co-polarization of 1-^13C-1,1-Bis(acetoxy(methyl-d2))-2,2′-d4-cyclopropane and 1-^13C-pyruvic acid in equal amounts of compounds (30 μmol) resulting in a concentration of approx. 3.5 mM of each substrate in the experiments. The DNP preparation of 1-^13C-1,1-Bis(acetoxy(methyl-d2))-2,2′-d4-cyclopropane was performed as described in example 2 and the DNP preparation of 1-^13C-pyruvate was performed as described in WO 2006/011809. The two substrates were co-polarized without mixing the substrates.
Rat liver cancer cells (Morris777) were grown in RPMI+10% FBS and antibiotics. Following trypsin harvesting 10 million cells were redissolved in 500 μl phosphate buffer (PBS) and transferred to a 10 mm NMR tube and placed with connecting tubing in a 14.1 T magnet at 37 C.
(§2) Following dissolution in 5 ml phosphate buffer (40 mM pH 7.3) with addition of 2.5 μl NaOH to neutralize the pyruvic acid 2 ml of the substrate mixture was injected into 10 million cells in suspension. A series of 20 degree pulses every 2 s (56 scans in total) was acquired. The acquisition was started just before injection of the hyperpolarized substrate. Data are presented as metabolite signals as a function of time or as area under the curve of the metabolite signals.

[3] = system: Human prostate cancer cells (PC-3); experiment: Carboxyl esterase CE-2 activity by in cell DNP conversion in PC-3 cells, co-polarized with 1-13C-pyruvate; type: cell-based; conditions: for AUC (arb. Units), area under the metabolic curve: 10 million cells, approx. 3.5 mM of each substrate, 37 C
Experimental: as §1
(§3) Human cancer cells (PC-3) were grown in RPMI+10% FBS and antibiotics. Following trypsin harvesting 10 million cells were redissolved in 500 μl phosphate buffer (PBS) and transferred to a 10 mm NMR tube and placed with connecting tubing in a 14.1 T magnet at 37° C.
as §2

[4] = system: Human prostate cancer cells (PC-3) in comparison to healthy human prostate cells (PNT-1A); experiment: In cell DNP conversion in PC-3 cells compared with healthy PNT-1A cells; type: cell-based; conditions: 10 million cells, approx. 3.5 mM substrate
Experimental: The experiments were performed with a polarization of 1-^13C-1,1-Bis(acetoxy(methyl-d2))-2,2′-d4-cyclopropane (30 μmol) resulting in a concentration of approx. 3.5 mM of this substrate in the experiments. The DNP preparation of 1-^13C-1,1-Bis(acetoxy(methyl-d2))-2,2′-d4-cyclopropane was performed as described in example 2.
as §3, with “Human prostate” for “Human”, “(PC-3) or immortalized human prostate healthy cells” for “(PC-3)”
as §2, with “7.3),” for “7.3) with addition of 2.5 μl NaOH to neutralize the pyruvic acid”

[5] = system: prostate of healthy Copenhagen rats; experiment: DNP-MRI conversion in the healthy prostate of living rats; type: in vivo, rat; conditions: intravenous, about 0.4 mmol/kg, n=2 rats
Experimental: DNP-MRI experiment has been performed on 2 healthy Copenhagen rats, 9 weeks old, with average weight of 180 g.
0.24 mmol of a 1-^13C-1,1-Bis(acetoxy(methyl-d2))-2,2′-d4-cyclopropane sample prepared following the description in Example 2A was hyperpolarized according to the conditions reported in example 2.B. The solid sample was then dissolved in 5 ml TRIS buffer (100 mM, pH 7.7) to obtain a hyperpolarized solution with 48 mM substrate concentration and a pH of 7.
2.8 ml of the dissolved hyperpolarized 1-^13C-1,1-Bis(acetoxy(methyl-d2))-2,2′-d4-cyclopropane solution was injected intravenously at an injection rate of about 0.25 mL/s through a catheter placed in the tail vein of the animal, resulting in a total administered close of about 0.4 mmol/kg. A time series of 64 NMR spectra separated by 3 s and generated by 10° radiofrequency pulses was acquired starting from 15 s before injection of the hyperpolarized substrate. In order to follow the whole metabolic fate of the molecules and the decay of the hyperpolarized signal. The ^13C MR signal was collected by a 20 mm surface coil placed around the prostate. Spatial localization of the signal has been achieved by combining the limited sensitivity volume of the receiving coil with a slice selective spectroscopic sequence including a single gradient kept on only during the excitation period.

[6] = DNP hyperpolarization in the solid state; type: physicochemical; conditions: DNP at 1.2 K, 3.35 T, microwave 93.900 GHz
Experimental: A) Finland radical, carboxylic acid form (0.7 mg, 0.67 μmol) was dissolved in 1-^13C-1,1-Bis(acetoxy(methyl-d2))-2,2′-d4-cyclopropane (45 μl, 50.7 mg, 0.27 mmol). To the solution was added a DMSO solution of the gadolinium complex ([alfa1,alfa4,alfa7-tris[(phenylmethoxy)methyl]-1,4,7,10-tetraazacyclododecane-1,4,7,10-tetraacetato(4-)]gadolinate(1-)]hydrogen) (0.75 mg of a 100 μmol/g solution). The concentration of radical and gadolinium were 15 mM and 1.6 mM respectively.
B) 30 μmol of a 1-^13C-1,1-Bis(acetoxy(methyl-d2))-2,2′-d4-cyclopropane sample made following the description in example 2.A was hyperpolarized. The composition was hyperpolarised under DNP conditions at 1.2 K in a 3.35 T magnetic field under irradiation with microwave (93.900 GHz). The polarization build-up constant was 750 s. The solid-state polarization was approx. 15%.

Molecule: 1,3-ethyl acetoacetate
T1, 37 C. 14.1 T [1]: 27 ± 2

Molecule: OC[C@H]1O[13CH](O)[C@H](O)[C@@H](O)[C@@H]1O (some centres unmarked) [1-13C-glucose]
T1, 37 C. 14.1 T [1]: 20 ± 2

Molecule: CC(=O)[13C](=O)O [1-13C-pyruvate]
T1, 37 C. 14.1 T [1]: 45 ± 4

Molecule: [2H]C([2H])(O)[13C]1(C([2H])([2H])O)C([2H])([2H])C1([2H])[2H] [1-^13C-1,1-(dihydroxy(methyl-d2))-2,2′-d4-cyclopropane]
AUC (arb. Units), area under the metabolic curve [2]: 1559 arb. Units

Molecule: [2H]C([2H])(OC(C)=O)[13C]1(C([2H])([2H])OC(C)=O)C([2H])([2H])C1([2H])[2H] [1-^13C-1,1-Bis(acetoxy(methyl-d2))-2,2′-d4-cyclopropane]
metabolic conversion relative to hyperpolarized 1-13C pyruvate, comparing the maximum metabolite signal [2]: approx. 15 times
metabolic conversion relative to hyperpolarized 1-13C pyruvate, comparing the maximum metabolite signal [3]: more than 3 times
metabolic conversion in diseased cells (PC-3) relative to healthy cells (PNT-1A) [4]: approx. 6 times
liquid state polarization ([1]; 12 s after dissolution): 13%
T1, 37 C. 14.1 T [1]: 85 ± 4
liquid state T1 ([1]; 14.1 T and 37 C, phosphate buffer 40 mM pH 7.3): approx. 85 s
hydrolysis in the dissolution process ([1]; dissolved in 5 ml phosphate buffer (40 mM, pH 7.3)): not hydrolysed
uptake and metabolic conversion in rat prostate in vivo [5]: taken up by prostate cells and converted into its hyperpolarized metabolites
polarization build-up constant [6]: 750 s
solid-state polarization [6]: approx. 15%

Molecule: [2H]C([2H])(O)[13C]1(C([2H])([2H])OC(C)=O)C([2H])([2H])C1([2H])[2H] [1-^13C-1-(acetoxy(methyl-d2))-1-(hydroxy(methyl-d2))-2,2′-d4-cyclopropane]
AUC of metabolite relative to that of 1-13C-lactate [2]: ~30 times
AUC (arb. Units), area under the metabolic curve [2]: 43480 arb. Units
AUC of metabolite relative to that of 1-13C-lactate [3]: ~6 times
AUC (arb. Units), area under the metabolic curve [3]: 20550 arb. Units

Molecule: [2H]C([2H])(O)[13C]([2H])([2H])[N+](C)(C)C [2-13C-1,1,2,2-d4-choline]
T1, 37 C. 14.1 T [1]: 43 ± 4

Molecule: N[C@@H](CC[13C](N)=O)C(=O)O [5-13C-glutamine]
T1, 37 C. 14.1 T [1]: 22 ± 2

Molecule: O[13CH2][13C@H]1O[13CH](O)[13C@H](O)[13C@@H](O)[13C@@H]1O (some centres unmarked) [13C6-glucose]
T1, 37 C. 14.1 T [1]: 15 ± 2

Continued, in another order:

T1, 37 C. 14.1 T [1]: 35 ± 3
Molecule: O=[13C](O)/C=C/[13C](=O)O [1,4-13C2-Fumarate]

T1, 37 C. 14.1 T [1]: 30 ± 3
Molecule: O=[13C](O)CC(O)[13C](=O)O (centres unmarked) [1,4-13C2-malate]

T1, 37 C. 14.1 T [1]: 35 ± 4
Molecule: CC([13CH3])CC(=O)C(=O)O (centres unmarked) [1-13C-2-ketoisocaproate]

T1, 37 C. 14.1 T [1]: 50 ± 3
Molecule: C[13C](=O)O [1-13C-acetate]

T1, 37 C. 14.1 T [1]: 31 ± 2
Molecule: C[C@H](N)[13C](=O)O [1-13C-alanine]

T1, 37 C. 14.1 T [1]: 40 ± 3
Molecule: C[C@H](O)[13C](=O)O [1-13C-lactate, reference compound]
AUC (arb. Units), area under the metabolic curve [2]: 282 arb. Units
AUC (arb. Units), area under the metabolic curve [3]: 3766 arb. Units
